Laboratory results: ChEMBL document CHEMBL1201862, “PubChem BioAssay data set” (2004)
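These data come from cells grown in 96-well plates and exposed to compound for 48 hours at five concentrations. GI50: concentration for 50% inhibition of growth.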 Calls of active or inactive are those of the source. No stated cut-off is given here; in the data, active = GI50 up to about 1.1 µM and inactive = higher.

Tests used:
Assay in all cases: growth of human tumour cells (NCI), 48 h
M19-MEL = test system: M19-MEL
KM-20L2 = test system: KM-20L2
SK-MEL-28 = test system: SK-MEL-28
SW-620 = test system: SW-620
COLO 205 = test system: COLO 205
OVCAR-8 = test system: OVCAR-8
UO-31 = test system: UO-31
EKVX = test system: EKVX
IGROV-1 = test system: IGROV-1
TK-10 = test system: TK-10
HCT-116 = test system: HCT-116
RXF 631 = test system: RXF 631
UACC-257 = test system: UACC-257
U-251 = test system: U-251
UACC-62 = test system: UACC-62
SNB-78 = test system: SNB-78
A498 = test system: A498
SF-295 = test system: SF-295
SF-268 = test system: SF-268
SNB-75 = test system: SNB-75
HT-29 = test system: HT-29
A549 = test system: A549
RPMI-8226 = test system: RPMI-8226
RXF 393 = test system: RXF 393
K562 = test system: K562
DLD-1 = test system: DLD-1
DMS-273 = test system: DMS-273
DMS-114 = test system: DMS-114
SR = test system: SR
M14 = test system: M14
HCC 2998 = test system: HCC 2998
HCT-15 = test system: HCT-15
Malme-3M = test system: Malme-3M
CCRF-CEM = test system: CCRF-CEM
HOP-92 = test system: HOP-92
OVCAR-5 = test system: OVCAR-5
OVCAR-3 = test system: OVCAR-3
SK-MEL-2 = test system: SK-MEL-2
NCI-H23 = test system: NCI-H23
SN12C = test system: SN12C
KM12 = test system: KM12
SK-OV-3 = test system: SK-OV-3
LXFL 529 = test system: LXFL 529
MOLT-4 = test system: MOLT-4
HOP-18 = test system: HOP-18
NCI-H226 = test system: NCI-H226
HL-60 = test system: HL-60
OVCAR-4 = test system: OVCAR-4
786-0 = test system: 786-0
XF498 = test system: XF498
HOP-62 = test system: HOP-62
CAKI-1 = test system: CAKI-1
NCI-H522 = test system: NCI-H522
SNB-19 = test system: SNB-19
NCI-H460 = test system: NCI-H460
SK-MEL-5 = test system: SK-MEL-5
LOX IMVI = test system: LOX IMVI
SF-539 = test system: SF-539
ACHN = test system: ACHN

Structure (SMILES): CCOC(=O)C1C=C2O[C@@H]3OC4(CCCCC4)O[C@@H]3C2[C@H]2C(=O)C=CC(=O)[C@@]12C(=O)OC (some centres undefined)
- GI50 (M19-MEL): 16 µM (inactive)
- GI50 (KM-20L2): 14.5 µM (inactive)
- GI50 (SK-MEL-28): 15.6 µM (inactive)
- GI50 (SW-620): 12.8 µM (inactive)
- GI50 (COLO 205): 8.61 µM (inactive)
- GI50 (OVCAR-8): 6.41 µM (inactive)
- GI50 (UO-31): 16.3 µM (inactive)
- GI50 (EKVX): 16.6 µM (inactive)
- GI50 (IGROV-1): 10.3 µM (inactive)
- GI50 (TK-10): 13.6 µM (inactive)
- GI50 (HCT-116): 6.61 µM (inactive)
- GI50 (RXF 631): 16.3 µM (inactive)
- GI50 (UACC-257): 16.8 µM (inactive)
- GI50 (U-251): 8.69 µM (inactive)
- GI50 (UACC-62): 16.8 µM (inactive)
- GI50 (SNB-78): 6.49 µM (inactive)
- GI50 (A498): 18.3 µM (inactive)
- GI50 (SF-295): 18.2 µM (inactive)
- GI50 (SF-268): 12.4 µM (inactive)
- GI50 (SNB-75): 19.4 µM (inactive)
- GI50 (HT-29): 6.9 µM (inactive)
- GI50 (A549): 14.5 µM (inactive)
- GI50 (RPMI-8226): 2.84 µM (inactive)
- GI50 (RXF 393): 1.66 µM (inactive)
- GI50 (K562): 5.45 µM (inactive)
- GI50 (DLD-1): 16.6 µM (inactive)
- GI50 (DMS-273): 8.65 µM (inactive)
- GI50 (DMS-114): 4.75 µM (inactive)
- GI50 (SR): 2.71 µM (inactive)
- GI50 (M14): 15.9 µM (inactive)
- GI50 (HCC 2998): 14.3 µM (inactive)
- GI50 (HCT-15): 9.4 µM
- GI50 (Malme-3M): 17.2 µM (inactive)
- GI50 (CCRF-CEM): 2.84 µM (inactive)
- GI50 (HOP-92): 12.2 µM (inactive)
- GI50 (OVCAR-5): 17.1 µM (inactive)
- GI50 (OVCAR-3): 7.89 µM (inactive)
- GI50 (SK-MEL-2): 16.1 µM (inactive)
- GI50 (NCI-H23): 16.3 µM (inactive)
- GI50 (SN12C): 16.7 µM (inactive)
- GI50 (KM12): 12.3 µM (inactive)
- GI50 (SK-OV-3): 18.2 µM (inactive)
- GI50 (LXFL 529): 10.7 µM (inactive)
- GI50 (MOLT-4): 2.7 µM (inactive)
- GI50 (HOP-18): 15.7 µM (inactive)
- GI50 (NCI-H226): 20.6 µM (inactive)
- GI50 (HL-60): 2.25 µM (inactive)
- GI50 (OVCAR-4): 9.31 µM (inactive)
- GI50 (786-0): 7.21 µM (inactive)
- GI50 (XF498): 7.29 µM (inactive)
- GI50 (HOP-62): 20 µM (inactive)
- GI50 (CAKI-1): 16 µM (inactive)
- GI50 (NCI-H522): 3.98 µM (inactive)
- GI50 (SNB-19): 8.38 µM (inactive)
- GI50 (NCI-H460): 14.6 µM (inactive)
- GI50 (SK-MEL-5): 19.2 µM (inactive)
- GI50 (LOX IMVI): 15.5 µM (inactive)
- GI50 (SF-539): 3.15 µM (inactive)
- GI50 (ACHN): 18.1 µM (inactive)
